# Data as given in patent publication US20240401101A1, “A LIVE CELL ASSAY TO DETERMINE PERMEABILITY OF TEST MOLECULES TO AND/OR WITHIN THE PEPTIDOGLYCAN SCAFFOLD OF BACTERIA CELLS” (priority 2021, published 2024).
# Columns and labels:
# [1] = system: M. smegmatis mc^2 155; test: Example IV: metabolic PG labeling of Msm with DBCO tags followed by azide fluorophore, flow cytometry; format: cell-based, Mycobacterium smegmatis; conditions: for cellular fluorescence with azide-modified fluorophore in cells pre-labeled with TetD: 25 μM TetD, fluorophore 1 h at 37° C.
# Procedure: General method for bacterial peptidoglycan modification. M. smegmatis strains was inoculated from the glycerol stock to the according media and grown for 24 hours until 0.5-0.6 OD, tetrapeptide probes were added to the media and the cells were grown overnight to achieve stationary phase. The cells were harvested the next day and spun down for 2 min at 3000 g, washed with phosphate buffered saline with tween80 (PBST, PBS with 0.05% tween 80) two times and resuspended in PBST to yield DBCO-modified M. smegmatis cells for further labeling and other experiments.
# (§1) DBCOtetra compared with stereo control and single amino acid DBCO. M. smegmatis mc^2 155 was inoculated from stationary phase in 1:100 dilution to a fresh 7H9 media with ADC. 25 μM Dap-DBCO, DBCOtetra or DBCOtera(L) were added to the culture tubes respectively, and the cells were grown for 36-40 hours until stationary phase. The cells were harvested and spun down for 2 min at 3000 g, washed with PBST two times and resuspended in PBST. To a 96-well plate added 100 μL cells pre well with 50 μM FAM-N3 in triplicate. The plate was incubated in 37° C. for 1 h and spun down for 2 min at 3000 g. The supernatant was decanted, and the pellets were washed with PBST for 2 times and fixed with 4% formaldehyde for 15 mins. The samples were then analyzed by Attune™ NxT Acoustic Focusing Cytometer.
# as §1, with “Confirm for click chemistry on PG.” for “DBCOtetra compared with stereo control and single amino acid DBCO.”, “μM” for “μM Dap-DBCO,”, “FL-tetra” for “DBCOtera(L)”, “uL” for “μL”, “FAM-N3 or 5-carboxy fluorescein accordingly” for “FAM-N3”
# as §1, with “Different concentrations of DBCOtetra.” for “DBCOtetra compared with stereo control and single amino acid DBCO.”, “ADC. 5 μM, 10 μM or” for “ADC.”, “μM” for “μM Dap-DBCO,”, “DBCOtetra” for “DBCOtetra or DBCOtera(L)”, “1h” for “1 h”
# Different concentration of FAM-N3 and different time. M. smegmatis mc^2 155 was inoculated from stationary phase in 1:100 dilution to a fresh 7H9 media with ADC. 25 μM DBCOtetra were added to the culture tubes, and the cells were grown for 36-40 hours until stationary phase. The cells were harvested and spun down for 2 min at 3000 g, washed with PBST two times and resuspended in PBST. To a 96-well plate added 100 μL cells pre well with different concentration of FAM-N3 described in the main text, 9 wells each. […] The samples were then analyzed by Attune™ NxT Acoustic Focusing Cytometer. […]
# [2] = system: S. aureus (ATCC 25923); test: Flow cytometry of S. aureus treated with thiol PG analogs / cystine enantiomers, then Mal-Fl; format: cell-based, Staphylococcus aureus; conditions: DTT 5 mM, 25 μM Mal-Fl
# Procedure: Flow cytometry analysis of S. aureus treated with thiol analogue panel. LB media containing 1 mM of each respective thiol analogue or dimethyl sulfoxide (DMSO) were prepared. S. aureus ATCC 25923 cells from an overnight culture were added to the medium (1:100 dilution) and allowed to grow overnight at 37° C. with shaking at 250 rpm. The cells were harvested at 4000 rpm and treated with 5 mM dithiothreitol (DTT) at the original culture volume for 5 minutes, to reverse any thiol oxidation that may have occurred. The cells were harvested at 4000 rpm and washed twice at the original culture volume with 1× phosphate-buffered saline (PBS) to remove residual DTT. […] The cells were washed once more to remove formaldehyde and then analyzed using the Attune NxT flow cytometer equipped with a 488 nm laser and 525/40 nm bandpass filter. The data were analyzed using the Attune NXT Software.
# Flow cytometry analysis of S. aureus treated with cystine enantiomers. […] The cells were washed once more to remove formaldehyde and then analyzed using the Attune NxT flow cytometer as described above.
# The first goal was to identify which cysteine-based label would result in the highest level of thiol handles on the surface of S. aureus. […] Incubation of cells with D-cystine (2) led to a ˜12-fold increase in cellular fluorescence relative to DMSO treated cells. […]
# [3] = system: S. aureus (ΔclpX); test: DBCO-pegn-Fl library in clpX deletion strain; format: cell-based, Staphylococcus aureus; conditions: 1 mM D-LysAz, 25 μM probe, versus WT SA546
# Procedure: TSB media containing 1 mM of D-LysAz were prepared. S. aureus SA546, ΔclpX, or ΔclpXΔltaS cells from overnight cultures were added to the medium (1:100 dilution) and allowed to grow overnight at 37° C. with shaking at 250 rpm. The cells were harvested at 4000 rpm and washed three times at the original culture volume with 1×PBS. Each strain was then treated with the DBCO-pegn-Fl library. All library members were used at a 25 μM concentration for 30 minutes at 37° C. and protected from light. The samples were subsequently harvested at 4000 rpm and washed three times with 1×PBS followed by fixation with 2% formaldehyde in 1×PBS for 30 minutes. The cells were washed once more to remove formaldehyde and then analyzed using the Attune NxT flow cytometer as described above.
# [4] = system: WT S. aureus (ATCC 25923); format: cell-based, Staphylococcus aureus
# Procedure: LB media containing 1 mM of D-LysAz were prepared. S. aureus ATCC 25923 cells supplemented with 0.1 μg/mL tunicamycin, S. aureus ΔtarO cells supplemented with 150 μg/mL spectinomycin, or S. aureus ATCC 25923 cells from overnight cultures were added to the medium (1:100 dilution) and allowed to grow overnight at 37° C. with shaking at 250 rpm. The cells were harvested at 4000 rpm and washed three times at the original culture volume with 1×PBS. Each strain was then treated with the DBCO-pegn-Fl library. All library members were used at a 25 μM concentration for 30 minutes at 37° C. and protected from light. The samples were subsequently harvested at 4000 rpm and washed three times with 1×PBS followed by fixation with 2% formaldehyde in 1×PBS for 30 minutes. The cells were washed once more to remove formaldehyde and then analyzed using the Attune NxT flow cytometer as described above.
# LB media containing either 1 mM of D-LysAz, N^ε-azido-L-lysine hydrochloride (L-LysAz), or DMSO were prepared. S. aureus ATCC 25923 cells were added to the LB medium (1:100) and allowed to grow overnight at 37° C. with shaking at 250 rpm. The cells were harvested at 4000 rpm and washed three times at the original culture volume with 1×PBS. […] The cells were washed once more to remove formaldehyde and then analyzed using the Attune NxT flow cytometer as described above.
# [5] = system: M. smegmatis mc^2 155; test: Ldt inhibition with meropenem (incorporation of TetD); format: cell-based, Mycobacterium smegmatis; conditions: 25 μM TetD, then Fl-az
# Procedure: Ldt inhibition with meropenem. M. smegmatis mc^2 155 was inoculated from the glycerol stock by 1 to 1000 dilution to the according media and grown for 24 hours until 0.5-0.6 OD. 25 μM DBCOtetra were added to the media, and the cells were aliquoted to a 96-well culture plate with different concentration of meropenem described in the main text, in triplicate respectively. The cells were then grown overnight to achieve stationary phase. The cells were harvested and spun down for 2 min at 3000 g, washed with PBST two times and resuspended in PBST. To a 96-well plate added 100 uL cells pre well with 50 μM FAM-N3 accordingly transferred from the culture plate. The plate was incubated in 37° C. for 1 h and spun down for 2 min at 3000 g. The supernatant was decanted, and the pellets were washed with PBST for 2 times and fixed with 4% formaldehyde for 15 mins. The samples were then analyzed by Attune™ NxT Acoustic Focusing Cytometer.
# [6] = system: S. aureus (ΔtarO); test: Flow cytometry of D-cystine tagged WTA deletion strain treated with maleimide accessibility probes; format: cell-based, Staphylococcus aureus; conditions: 0.1 μg/mL tunicamycin, 25 μM Mal-Fl
# Procedure: (§2) Flow cytometry analysis of S. aureus strains treated with Mal-pegn-Fl and Mal-pron-Fl libraries. LB media containing 1 mM of D-cystine were prepared. S. aureus ATCC 25923, S. aureus ATCC 25923 supplemented with 0.1 μg/mL tunicamycin, S. aureus ΔtarO supplemented with 150 μg/mL spectinomycin, USA300, or S. aureus SCO1 cells from overnight cultures were added to the medium (1:100 dilution) and allowed to grow overnight at 37° C. with shaking at 250 rpm. The cells were harvested at 4000 rpm and treated with 5 mM DTT at the original culture volume for 5 minutes, to reverse any thiol oxidation that may have occurred. The cells were harvested at 4000 rpm and washed twice at the original culture volume with 1×PBS to remove residual DTT. Each strain was then treated with both libraries, Mal-pegn-Fl and Mal-pron-Fl, in parallel. All library members were used at a 25 μM concentration for 30 minutes at 37° C. and protected from light. The samples were subsequently harvested at 4000 rpm and washed three times with 1×PBS followed by fixation with 2% formaldehyde in 1×PBS for 30 minutes. The cells were washed once more to remove formaldehyde and then analyzed using the Attune NxT flow cytometer as described above.
# (§3) Tunicamycin scan. […] The cells were washed once more to remove formaldehyde and then analyzed using the Attune NxT flow cytometer as described above.
# [7] = system: WT S. aureus (ATCC 25923); test: Flow cytometry of D-cystine tagged S. aureus treated with Mal-pegn-Fl and Mal-pron-Fl accessibility probes, with or without tunicamycin; format: cell-based, Staphylococcus aureus; conditions: 0.001-0.1 μg/mL tunicamycin, 25 μM Mal-Fl
# Procedure: as §2, §3
molecule,measurement,setting,value
N[C@H](CNC(=O)CCC(=O)N1Cc2ccccc2C#Cc2ccccc21)C(=O)O [D-DapD],PG labeling levels (fluorescence) above vehicle treated cells,"[1]; Msm, metabolic label then Fl-az",~40 fold
N[C@H](CSSC[C@@H](N)C(=O)O)C(=O)O [D-cystine],increase in cellular fluorescence relative to DMSO treated cells,[2]; 1 mM PG analog overnight,~12 fold
"O=C1OC2(c3ccc(O)cc3Oc3cc(O)ccc32)c2ccc(NC(=S)NCCC(=O)N3Cc4ccccc4C#Cc4ccccc43)cc21 [DBCO-Fl, fluorescein-DBCO]",permeation of probe on deletion of clpX alone,[3],did not lead to an increase
O=C(CCC(=O)N1Cc2ccccc2C#Cc2ccccc21)NCCOCCOCCOCCOCCOCCOCCOCCOCCOCCNC(=S)Nc1ccc(-c2c3ccc(=O)cc-3oc3cc(O)ccc23)c(C(=O)O)c1 [DBCO-peg9-Fl],increase in cellular fluorescence on co-incubation of cells with tunicamycin,[4],~17 fold
"[N-]=[N+]=Nc1ccc2c(c1)C1(OC2=O)c2ccc(O)cc2Oc2cc(O)ccc21 [Fl-az, 6-azido-fluorescein]",cellular fluorescence with azide-modified fluorophore in cells pre-labeled with TetD,[1],concentration-dependent and time-dependent increase in cellular fluorescence
"Cl.[N-]=[N+]=NNCCCC[C@H](N)C(=O)O [L-LysAz, N^ε-azido-L-lysine hydrochloride]",cellular fluorescence after DBCO-Fl,[4],background fluorescence levels
N[C@@H](CSSC[C@H](N)C(=O)O)C(=O)O [L-cystine],cellular fluorescence compared to DMSO treated cells,[2]; 1 mM overnight,minimal increase
C[C@@H](O)[C@H]1C(=O)N2C(C(=O)O)=C(S[C@@H]3CN[C@H](C(=O)N(C)C)C3)[C@H](C)[C@H]12 [meropenem],cellular fluorescence with increasing levels of meropenem in the presence of TetD,[5],concentration dependent decrease in cellular fluorescence
"[N-]=[N+]=Nc1ccc2c(c1)C1(OC2=O)c2ccc(N)cc2Oc2cc(N)ccc21 [rhodamine 110, 6-azido-rhodamine 110]",cellular fluorescence with azide-modified fluorophore in cells pre-labeled with TetD,[1],"higher than Fl-az, albeit with a lower fold increase over unlabeled cells"
tunicamycin,effect of tunicamycin on ΔtarO cells,[6],minimal additive effect
same,effect of tunicamycin treatment on cellular fluorescence,[7],higher overall levels of cellular fluorescence in a concentration dependent manner
